Source: the NIST ThermoML archive (doi:10.1016/j.jct.2019.04.017)
Values joined by “and” are separate entries in the source; they are usually repeats but may differ in a detail not shown here. Equal values may be shown once.

Assay: xn = mol fraction of the nth substance listed
Settings: 96 kPa, Liquid; for viscosity: Cone and plate viscometry; for electrical conductivity: Frequency=0.001 MHz, Alternating current cell with electrodes

C1CCC2=NCCCN2CC1 [1,8-diaza-7-bicyclo[5.4.0]undecene] + OCC(O)CO
Settings	electrical conductivity, 288.1 K [S/m]	electrical conductivity, 293.1 K [S/m]	electrical conductivity, 298.1 K [S/m]	electrical conductivity, 303.1 K [S/m]	electrical conductivity, 308.1 K [S/m]	viscosity, 288.1 K	viscosity, 298.1 K [mPa·s]	viscosity, 308.1 K
x1 = 0.0501	–	–	–	–	–	3852 mPa·s	1458	626.5 mPa·s
x1 = 0.0502	0.0181	0.0243	0.0327	0.0423	0.0534	–	–	–
x1 = 0.0909	–	–	–	–	–	5116 mPa·s	1802	759.4 mPa·s
x1 = 0.0914	0.0194	0.0272	0.0371	0.0478	0.062	–	–	–
x1 = 0.1	0.0187	–	0.0352	–	0.0592	5432 mPa·s	1876	784.2 mPa·s
x1 = 0.1115	0.0182	0.0249	0.0339	0.044	–	–	–	–
x1 = 0.1266	0.0169	0.0238	0.0317	0.0433	–	–	–	–
x1 = 0.1667	–	–	–	–	–	5975 mPa·s	2092	818.8 mPa·s
x1 = 0.1672	0.0141	0.0208	0.0283	0.0374	–	–	–	–
x1 = 0.2	0.0116	0.0167	0.023	0.031	–	6100 mPa·s and 6110 mPa·s	2107	833.7 mPa·s and 835.4 mPa·s
x1 = 0.2153	–	–	–	–	–	6150 mPa·s	2175	838.8 mPa·s
x1 = 0.2306	–	–	–	–	–	6006 mPa·s	2087	828.5 mPa·s
x1 = 0.2504	0.00817	0.0117	0.0161	0.0204	–	–	–	–
x1 = 0.287	0.00592	0.00833	0.0112	0.015	–	–	–	–
x1 = 0.3059	–	–	–	–	–	5665 mPa·s	1988	771.5 mPa·s
x1 = 0.3333	–	–	–	–	–	5582 mPa·s	1968	742.2 mPa·s
x1 = 0.3338	0.00385	0.00534	0.00723	0.0103	–	–	–	–
x1 = 0.4003	0.00156	0.00223	0.00307	0.00416	–	–	–	–
x1 = 0.4011	–	–	–	–	–	5043 mPa·s	1705	664.5 mPa·s
x1 = 0.5	0.000299	0.000456	0.000675	0.000965	–	4049 mPa·s	1315	503 mPa·s
x1 = 0.5632	–	–	–	–	–	3138 mPa·s	1017	393.5 mPa·s
x1 = 0.5656	0.000105	0.00016	0.000249	0.000356	–	–	–	–
x1 = 0.625	–	–	–	–	–	1906 mPa·s	616.2	224.2 mPa·s
x1 = 0.6255	4.63e-05	7.22e-05	0.000122	0.000176	–	–	–	–
x1 = 0.75	8.75e-05	–	0.000189	–	–	468.1 mPa·s	186.1	84.66 mPa·s
x1 = 0.753	8.75e-05	0.000125	0.000189	0.000254	–	–	–	–
x1 = 0.8333	0.000221	–	0.000405	–	–	119.1 mPa·s	51	33.4 mPa·s
x1 = 0.8334	0.000221	0.000314	0.000405	0.000526	–	–	–	–
x1 = 0.9094	0.000432	0.000514	0.000603	0.000695	–	–	–	–
x1 = 0.95	0.000486	0.000561	0.000638	0.000702	–	–	–	–
x1 = 0.975	0.000452	0.000511	0.000561	0.000615	–	–	–	–
x1 = 1	0.000222	0.000241	0.000267	0.000297	–	15.35 mPa·s	10.32	8.17 mPa·s
